# Active and inactive are the calls of the source. The calls are words filed in the database; no cut-off is given here.
# How the values were obtained:
# Assay type in all cases: functional
# [1] = test system: Escherichia coli; assay: Antibacterial activity against Escherichia coli after 24 hrs by broth dilution method
# [2] = test system: Bacillus subtilis; assay: Antibacterial activity against Bacillus subtilis; further: test concentration or dose not given here
# [3] = test system: Klebsiella pneumoniae; assay: Antibacterial activity against Klebsiella pneumoniae
# [4] = test system: Bacillus subtilis; assay: Antibacterial activity against Bacillus subtilis after 24 hrs by broth dilution method
# [5] = test system: Fusarium; assay: Antifungal activity against Fusarium after 72 to 96 hrs by broth dilution method
# [6] = test system: Aspergillus flavus; assay: Antifungal activity against Aspergillus flavus; further: test concentration or dose not given here
# [7] = test system: Penicillium; assay: Antifungal activity against Penicillium after 72 to 96 hrs by broth dilution method
# [8] = test system: Aspergillus flavus; assay: Antifungal activity against Aspergillus flavus after 72 to 96 hrs by broth dilution method
# [9] = test system: Pseudomonas aeruginosa; assay: Antibacterial activity against Pseudomonas aeruginosa
# [10] = test system: Klebsiella pneumoniae; assay: Antibacterial activity against Klebsiella pneumoniae after 24 hrs by broth dilution method
# [11] = test system: Aspergillus niger; assay: Antifungal activity against Aspergillus niger after 72 to 96 hrs by broth dilution method
# [12] = test system: Fusarium; assay: Antifungal activity against Fusarium
# [13] = test system: Rhizopus; assay: Antifungal activity against Rhizopus; on IZ: test concentration or dose not given here
# [14] = test system: Penicillium; assay: Antifungal activity against Penicillium
# [15] = test system: Pseudomonas aeruginosa; assay: Antibacterial activity against Pseudomonas aeruginosa after 24 hrs by broth dilution method
# [16] = test system: Aspergillus niger; assay: Antifungal activity against Aspergillus niger; further: test concentration or dose not given here
# [17] = test system: Rhizopus; assay: Antifungal activity against Rhizopus after 72 to 96 hrs by broth dilution method
# [18] = test system: Enterococcus faecalis; assay: Antibacterial activity against Streptococcus faecalis after 24 hrs by broth dilution method
# [19] = test system: Escherichia coli; assay: Antibacterial activity against Escherichia coli; further: test concentration or dose not given here
# [20] = test system: Enterococcus faecalis; assay: Antibacterial activity against Streptococcus faecalis; on IZ: test concentration or dose not given here
Structure (SMILES),MIC [1] [µg/mL],inhibition zone (IZ) [2] [mm],inhibition zone (IZ) [3],MIC [4] [µg/mL],MIC [5] [µg/mL],inhibition zone (IZ) [6],MIC [7] [µg/mL],MIC [8] [µg/mL],inhibition zone (IZ) [9],MIC [10] [µg/mL],MIC [11] [µg/mL],inhibition zone (IZ) [12],inhibition zone (IZ) [13],inhibition zone (IZ) [14],MIC [15] [µg/mL],inhibition zone (IZ) [16],MIC [17] [µg/mL],MIC [18] [µg/mL],inhibition zone (IZ) [19] [mm],inhibition zone (IZ) [20]
CC1/C(=N/OC(=O)Oc2ccccc2)CC(c2ccccc2)N(C)C1c1ccccc1 (stereo not given),12.5,12,17 mm,25,25,12 mm,50,50,12 mm,12.5,100,12 mm,12 mm,12 mm,25,12 mm,50,25,17,17 mm
CC(C)C1/C(=N/O)CC(c2ccccc2)N(C)C1c1ccccc1 (stereo not given),50,12,inactive,25,200,inactive,100,200,12 mm,200,200,inactive,12 mm,12 mm,200,inactive,50,50,17,12 mm
CCC1/C(=N/OC(=O)Oc2ccccc2)CC(c2ccccc2)N(C)C1c1ccccc1 (stereo not given),25,17,22 mm,25,50,17 mm,25,50,17 mm,6.25,50,17 mm,17 mm,17 mm,12.5,17 mm,25,25,12,17 mm
COC(=O)O/N=C1\CC(c2ccccc2)N(C)C(c2ccccc2)C1C(C)C (stereo not given),12.5,12,inactive,12.5,200,12 mm,200,100,inactive,200,200,inactive,inactive,inactive,200,inactive,200,50,17,12 mm
CCOC(=O)O/N=C1\CC(c2ccccc2)N(C)C(c2ccccc2)C1CC (stereo not given),25,12,inactive,25,200,inactive,200,200,inactive,200,200,inactive,12 mm,inactive,200,inactive,100,100,12,12 mm
CCC1/C(=N/O)CC(c2ccccc2)N(C)C1c1ccccc1 (stereo not given),50,12,inactive,50,200,inactive,200,200,inactive,200,200,inactive,12 mm,inactive,200,inactive,100,200,12,12 mm
CCC1/C(=N/OC(=O)OC(C)Cl)CC(c2ccccc2)N(C)C1c1ccccc1 (stereo not given),12.5,17,32 mm,25,12.5,17 mm,25,25,22 mm,6.25,25,22 mm,17 mm,17 mm,12.5,17 mm,25,12.5,22,22 mm
COC(=O)O/N=C1\CC(c2ccccc2)N(C)C(c2ccccc2)C1C (stereo not given),50,12,inactive,50,200,12 mm,200,100,inactive,200,200,inactive,inactive,inactive,200,inactive,200,200,12,inactive
CC(Cl)OC(=O)O/N=C1\CC(c2ccccc2)N(C)C(c2ccccc2)C1C(C)C (stereo not given),12.5,32,32 mm,6.25,12.5,22 mm,12.5,25,32 mm,6.25,25,32 mm,22 mm,32 mm,6.25,17 mm,25,6.25,22,32 mm

# From ChEMBL document CHEMBL2380238, “Synthesis, spectral and antimicrobial evaluation of some novel 1-methyl-3-alkyl-2,6-diphenylpiperidin-4-one oxime carbonates” (2013)
